Experimental data from patent US20120263780A1, “Carbohydrate Entrapped Active Agent Delivery Composition and Articles Using the Same” (priority 2009, published 2012).

How the values were obtained:
[1] = test system: Staphylococcus aureus (ATCC #6538); test: Shake flask test ASTM E2149-01, anti-bacterial activity of thymol-treated coform substrates; assay type: cell-based; settings: 7 day old sample, 1 hour exposure
Method: Five sections of coform material approximately 17 cm by 17 cm were prepared and weighed to determine the amount of thymol needed for loading of thymol at a weight percent of 0.3%, 0.6% and 1.0%. The determined quantity of thymol to provide thymol as a percentage was placed in an excess (39.0 grams) of ethanol to be dissolved. The coform substrates were placed into a plastic bag and the ethanol/thymol mixture was added. Using a cylindrical glass jar rolled on the outside of the sealed plastic bag, the sheets were rolled to evenly express the liquid throughout the coform squares. The coform was then removed from the bag and placed in a fume hood to allow the ethanol to evaporate off. The remaining dry sheets containing thymol were removed from the hood after one hour and placed in a dry plastic bag. Samples were aged 7 days and tested for anti-bacterial activity. To determine the anti-bacterial activity of the samples after 7 days, the shake flask test of ASTM […]-01 “Standard Test Method for Determining the Antimicrobial Activity of Immobilized Antimicrobial Agents Under Dynamic Contact Conditions” was used. Approximately 1 gram samples of thymol-treated and untreated coform substrates were placed in individual capped flasks containing approximately 10^5 CFU of a Staphylococcus aureus (ATCC #6538) in phosphate buffered saline. Flasks were shaken at maximum speed on a wrist-action shaker for 1 hour. […] The active agent thymol has volatilized off of the sample within the 7 day time period.

[2] = test system: Staphylococcus aureus (ATCC #6538); test: Zone of inhibition testing on agar plates; assay type: cell-based; settings: for Observed Zone of Inhibition (mm): 7 day old sample; for Zone (mm): thymol powder in well
Method: The samples prepared above were cut into 10 mm-diameter circular sections of thymol-treated and untreated material. These samples were placed on a freshly streaked sample of staphylococcus aureus on trypticase soy agar. After 24 hours incubation at 37° C., plates were measured for zones of inhibitions surrounding the samples. To calculate the zone of inhibition, the test material was brought into contact with a known population of test microorganisms on an agar plate for a specified period of time. At the end of the contact time the area of inhibited colony formation around the test material was measured. The size of this area of no growth was a measure of leaching of the antimicrobial agent from the test material. In this procedure, the test material was cut into small discs and placed on an agar plate evenly spread with a test microorganism. The plates were incubated for 24 hours at ideal growth conditions. Following incubation, the diameter of the circle of no growth around the disc was measured. The zone of inhibition was reported as the difference between the sample disc diameter and the average of the measured no growth zone diameters. Materials and Reagents • Microorganisms: frozen stock of Staphylococcus aureus (ATCC 6538). • Mueller-Hinton agar (MHA) plates or equivalent plated media. Prepare following manufacturer's directions. Store at 4±2° C. Alternatively pre-made plates can be utilized. • Mueller-Hinton broth (MHB) or equivalent liquid media. Prepare following manufacturers directions. Store at 4±2° C. Alternately pre-made media can be utilized. • Sterile cotton swabs or equivalent. • Sterile forceps. • Positive control disc: Vanocymicin susceptibility discs (6 mm), 30 μg/disc (BD and Company; Sparks, Md.). • Test material, cut into 8 mm discs. • Calipers or other measuring device. • Other ancillary lab supplies. 2. Staphylococcus aureus (ATCC 6538) is inoculated from an overnight plate or MHB into 5 ml of sterile MHB in a 35° C. incubator for 18-24 hrs. 3. The overnight culture is then adjusted using MHB to the 0.5 McFarland barium sulphate standards (1×10^8 CFU/ml) or approximately 0.15 OD with a 0.2 cm light path at 660 nanometer. 1. Pre-warm, to room temperature, MHA plates. […] 3. Moisten a sterile applicator swab in the standardized cell suspension and express any excess moisture by rotating the swab against the glass above the liquid in the tube. Inoculate the entire surface of each plate, inoculating the surface completely in three different directions to ensure uniform growth. 5. Store the inoculated plates at room temperature for 10-15 minutes to allow the medium to absorb the moisture from the inoculum. 6. Apply discs of test material to the surface of the inoculated medium with a sterile forceps and tap them to ensure that they are in complete contact with the agar surface. A positive control (vancomycin disc) and negative control (uncoated disc) should be used on each plate. 7. Invert the inoculated plates and incubate them at 35° C. for 18-24 hours. 8. Examine the plates from the back, viewed against a black background and illuminated with reflected light. With calipers, measure the diameter of each zone of inhibition to the nearest whole millimeter. Zone of Inhibition=diameter of no growth area−diameter of disc First, exemplary Delivery Compositions 1 and 2 were created. A sucrose blend was melted on a stove top to prepare a carbohydrate matrix. An active agent was added to the molten sucrose to provide a 2% loading of thymol. After the mixture was melted, analysis was performed to determine the amount of thymol retained within the sucrose. Delivery Composition 1 contained approximately 0.72 wt. % thymol and Delivery Composition 2 contained approximately 0.74 wt. % thymol. Both Delivery Compositions 1 and 2 were placed in a well in a media with a plate inoculated with Staphylococcus aureus (ATCC #6538) and a zone of inhibition for each sample was measured as described above. […]

[3] = 0.3% thymol add-on to coform substrate
[4] = 0.6% thymol add-on to coform substrate
[5] = 1% thymol add-on to coform substrate

For `Cc1ccc(C(C)C)c(O)c1` [Thymol, thymol], the “Log10 Reduction of Bacteria” value [1, 3] was “No Reduction”, the “Log10 Reduction of Bacteria” value [1, 4] was “No Reduction” and the “Log10 Reduction of Bacteria” value [1, 5] was “No Reduction”. The “Observed Zone of Inhibition (mm)” value [2, 3] was 0 mm, the “Observed Zone of Inhibition (mm)” value [2, 4] was 0 mm and the “Observed Zone of Inhibition (mm)” value [2, 5] was 0 mm. The zone of inhibition ([2]; neat powder, various amounts, after 1 day) was 10-15 mm, the “Zone (mm)” value ([2]; weight 0.0018 grams) was 10 mm and the “Zone (mm)” value ([2]; weight 0.0045 grams) was 12 mm. The “Zone (mm)” value ([2]; weight 0.0353 grams) was 13 mm, the “Zone (mm)” value ([2]; weight 0.0789 grams) was 12 mm and the “Zone (mm)” value ([2]; weight 0.1609 grams) was 15 mm.
